Laboratory results as given in patent US20200179392A1, “Idelalisib for Treating Proliferative Vitreoretinopathy and Abnormal Intraocular Neovascularization” (priority 2016, published 2020).

Test system: PDGFRβ/PI3Kδ/Akt
Assay: Western blot of vitreous-induced Akt activation restored by mutant PDGFRβ (βΔx) in PDGFRβ-silent RPEM cells
Type: cell-based, human
Conditions: PDGFRβ-silent RPEM cells expressing βΔx; NAC 10 mM, SU6656 1 μM
Experimental: 2B. Serum-deprived RPEM cells as defined were treated with RV or PDGF-B for 30 minutes and their lysates were analyzed with indicated antibodies. This is a representative of three independent experiments. βΔx: a truncated PDGFRβ without the PDGF-binding domain. NAC: N-acetyl-cysteine (10 mM), a scavenger of reactive oxygen species (ROS), SU: SU6656 (1 μM), a specific inhibitor of Src family kinases (SFKs).
To make the retrovirus, the pLXSHD-PDGFRβΔx construct was transfected into 293GPG cells with reagent (Lipofectamine 2000; Invitrogen). Virus containing medium was collected for 5 days and then was concentrated (25,000g, 90 minutes, 4° C.). RPEM cells deficient for PDGFRβ were infected by incubation with the concentrated retrovirus in DMEM supplemented with 10% FBS and 8 μg/mL polybrene (hexadimethrine bromide; Sigma) for 24 hours. Successfully infected cells were selected in histidine-free DMEM supplemented with 2 mM L-histidinol dihydrochoride (Sigma, St. Louis, Mo.). Resultant cell lines were termed RPEMPAx; the level of the truncated PDGFRPAx was determined by Western blot analysis with an antiPDGFRβ antibody that recognizes the receptor's intracellular domain.
Cells grown to 90% confluence in wells of 24-well plates were serum starved for 24 hours, and then treated with appropriated agents. […] Signal intensity was determined by densitometry using NIH imageJ software^24, 44, 50.

Row | Compound | effect on restoration of vitreous-induced activation of Akt by mutant PDGFRβ
1 | CC(=O)N[C@@H](CS)C(=O)O [N-acetyl-cysteine] | prevented
2 | CN(C)S(=O)(=O)c1ccc2c(c1)/C(=C/c1cc3c([nH]1)CCCC3)C(=O)N2 [SU6656] | prevented
